Reference: patent US9067920B2, “Compounds useful for inhibiting Chk1” (Eli Lilly and Company, priority 2010, dated 2015)
Where a name gives a salt, the structure may show the parent alone.

Tested on: HT-29 colon tumor xenograft
Test: HT-29 tumor xenograft model, oral administration of Chk1 inhibitor
Assay type: in vivo, nude mice
Protocol: The ability of Chk1 inhibitors to potentiate tumor killing by DNA damaging agents can be determined in vivo using the Calu-6 lung and HT-29 colon tumor xenograft efficacy models. Calu-6 lung cancer cells are cultured in growth media (MEM with Earle's Balanced Salt Solution with L-glutamine supplemented with 10% (v/v) heat inactivated FBS, 1×MEM non-essential amino acids, 1× sodium pyruvate) and HT-29 colon cancer cells (ATCC) are cultured in growth media, (McCoy's 5A medium supplemented with 10% FBS) and expanded.
Cells are harvested and washed twice with phosphate buffered saline and 5×10^6 cells (HT-29) or 1×10^6 a cells (Calu-6) in growth media (without serum) are mixed with equal volume of BD Matrigel™ matrix, then injected subcutaneously into the flank of nude mice (CD-1 nu/nu).
At about day 16 after implant (150-200 mm^3), gemcitabine is formulated fresh in saline daily and administered to animals by intraperitoneal route at 40 mg/kg dose. Twenty four hours later animals are administered Chk1 compound, in 0.2% Tween-80/0.5% methylcellulose by the oral route MD. After three days of rest, dosing was repeated for three additional cycles (Q5Dx4 with the compound of Example 3 offset+24 hours). Tumor growth inhibition (TGI) is calculated as described in the previous paragraph. Compounds within the scope of the invention are tested in this assay run substantially as above.

`COc1nc(C)ccc1-c1cc(Nc2cncc(O[C@@H]3CCCNC3)n2)[nH]n1` [Example 3, (R)-[5-(2-Methoxy-6-methyl-pyridin-3-yl)-2H-pyrazol-3-yl]-[6-(piperidin-3-yloxy)-pyrazin-2-yl]-amine acetic acid salt] was tested, and the “% TGI at day 50” value (HT29, Example 3 30 mpk oral alone) was 39%, the “anti-tumor activity in combination with gemcitabine” value (HT-29 xenograft, oral, gemcitabine 40 mg/kg ip) was “excellent dose dependent anti-tumor activity” and the “increase in tumor growth inhibition over gemcitabine alone” value (oral, stated for HT-29 and Calu-6 models together) was ≤ 2,9 fold.
